Laboratory results taken from patent US20110015119A1, “NOVEL SEMI-SYNTHETIC GLYCOPEPTIDES AS ANTIBACTERIAL AGENTS” (LEAD THERAPEUTICS, INC., priority 2009, published 2011).
Values after ≈ are worked out from the molar mass of the structure shown. Where two headings read alike, the source gives them in different places.

Experiments:
Format in all cases: cell-based
[1] = system: Staphylococcus aureus 100 (ATCC 29213); experiment: MIC by broth microdilution, SA 100
Protocol: (§1) Antibacterial activity in vitro is investigated by broth microdilution method in Meuller-Hinton broth as recommended by NCCLS. All strains tested are clinical isolates either sensitive or resistant to natural glycopeptides. MIC values were determined using the CLSI-recommended broth microdilution procedure (Clinical and Laboratory Standards Institute, Methods for Dilution Antimicrobial Susceptibility Tests for Bacteria That Grow Aerobically; Approved Standard-Seventh Edition.). Automated liquid handlers (Multidrop 384, Labsystems, Helsinki, Finland; Biomek 2000 and Multimek 96, Beckman Coulter, Fullerton Calif.) were used to conduct serial dilutions and liquid transfers. The MIC value for vancomycin is given for comparison. The abbreviations for organisms tested are as follow: SA 100—Staphylococcus aureus 100 (ATCC 29213); SA 757—Staphylococcus aureus 757 (MRSA); SA 2012—Staphylococcus aureus 2012 (VISA); SE 835—Staphylococcus epidermidis 835; SE 831—Staphylococcus epidermidis 831 (MRSE); EFc 101—Enterococcus faecalis 101 (ATCC 29212); EFc 848—Enterococcus faecalis 848 (VRE, Van A); EFcm 800—Enterococcus faecium 800; EFcm 752—Enterococcus faecium 752 (VRE, Van A); SPNE 1195—Streptococcus pneumoniae 1195 (ATCC 49619); SPY 712—Streptococcus pyogenes 712.

[2] = system: Staphylococcus aureus 757 (MRSA); experiment: MIC by broth microdilution, SA 757; details: read-out: MIC SA 757
Protocol: as §1

[3] = system: Staphylococcus aureus 2012 (VISA); experiment: MIC by broth microdilution, SA 2012; details: Staphylococcus aureus 2012 (VISA); class symbols; read-out: MIC SA 2012
Protocol: as §1

[4] = system: Staphylococcus epidermidis 835; experiment: MIC by broth microdilution, SE 835
Protocol: as §1

[5] = system: Staphylococcus epidermidis 831 (MRSE); experiment: MIC by broth microdilution, SE 831; details: read-out: MIC SE 831
Protocol: as §1

[6] = system: Enterococcus faecalis 101 (ATCC 29212); experiment: MIC by broth microdilution, EFc 101; details: class symbols
Protocol: as §1

[7] = system: Enterococcus faecalis 848 (VRE, Van A); experiment: MIC by broth microdilution, EFc 848; details: Enterococcus faecalis 848 (VRE, Van A); class symbols; read-out: MIC E FC 848
Protocol: as §1

Enterococcus faecium 800 = experiment: MIC by broth microdilution, EFcm 800
Protocol: as §1

[8] = system: Enterococcus faecium 752 (VRE, Van A); experiment: MIC by broth microdilution, EFcm 752; details: Enterococcus faecium 752 (VRE, Van A); class symbols; read-out: MIC E FCM 752
Protocol: as §1

[9] = system: Streptococcus pneumoniae 1195 (ATCC 49619); experiment: MIC by broth microdilution, SPNE 1195
Protocol: as §1

[10] = system: Streptococcus pyogenes 712; experiment: MIC by broth microdilution, SPY 712
Protocol: as §1

[11] = ATCC29213, Staphylococcus aureus 100 (ATCC 29213), class symbols, read-out: MIC SA 100
[12] = Staphylococcus aureus 757 (MRSA), class symbols
[13] = Staphylococcus epidermidis 835, class symbols, read-out: MIC SE 835
[14] = Staphylococcus epidermidis 831 (MRSE), class symbols
[15] = ATCC29212, Enterococcus faecalis 101 (ATCC 29212), read-out: MIC E FC 101
[16] = Enterococcus faecium 800, class symbols, read-out: MIC E FCM 800
[17] = ATCC49619, Streptococcus pneumoniae 1195 (ATCC 49619), class symbols, read-out: MIC S PNE 1195
[18] = Streptococcus pyogenes 712, class symbols, read-out: MIC S PYO 712

SMILES | MIC [1, 11] [µg/mL] | MIC [2, 12] [µg/mL] | MIC [3] [µg/mL] | MIC [4, 13] [µg/mL] | MIC [5, 14] [µg/mL] | MIC [6, 15] [µg/mL] | MIC [7] [µg/mL] | MIC (Enterococcus faecium 800; [16]) [µg/mL] | MIC [8] [µg/mL] | MIC [9, 17] [µg/mL] | MIC [10, 18] [µg/mL] | MIC ([1]; Staphylococcus aureus, ATCC29213, read-out: MIC SA 100) [µg/mL] | MIC ([2]; Staphylococcus aureus, MRSA) [µg/mL] | MIC ([4]; Staphylococcus epidermidis, 835, read-out: MIC SE 835) [µg/mL] | MIC ([5]; Staphylococcus epidermidis, MRSE) [µg/mL] | MIC ([6]; Enterococcus faecalis, ATCC29212, read-out: MIC E FC 101, Enterococcus faecalis 101 (ATCC 29212)) [µg/mL] | MIC (Enterococcus faecium 800; Enterococcus faecium, 800, read-out: MIC E FCM 800) [µg/mL] | MIC ([9]; Streptococcus pneumoniae, ATCC49619, read-out: MIC S PNE 1195) [µg/mL] | MIC ([10]; Streptococcus pyogenes, 712, read-out: MIC S PYO 712) [µg/mL]
CCCCCCc1ccc(S(=O)(=O)NCCCCCCNCc2c(O)cc3c(c2O)-c2cc(ccc2O)[C@H]2NC(=O)[C@@H]4NC(=O)[C@H](CC(N)=O)NC(=O)[C@H](NC(=O)[C@@H](CC(C)C)NC)[C@H](O)c5ccc(c(Cl)c5)Oc5cc4cc(c5O[C@@H]4O[C@H](CO)[C@@H](O)[C@H](O)[C@H]4O[C@H]4C[C@](C)(NC(=O)CCCCCN)[C@H](O)[C@H](C)O4)Oc4ccc(cc4Cl)[C@@H](O)[C@H](NC2=O)C(=O)N[C@@H]3C(=O)O)cc1 (atropisomer, axis not shown) [Compound 344] | 0.01 to 0.5 (≈ 0.00522 to 0.261 µM) | 0.01 to 0.5 (≈ 0.00522 to 0.261 µM) | 0.01 to 0.5 (≈ 0.00522 to 0.261 µM) | 0.01 to 0.5 (≈ 0.00522 to 0.261 µM) | 0.01 to 0.5 (≈ 0.00522 to 0.261 µM) | 0.01 to 0.5 (≈ 0.00522 to 0.261 µM) | 4 to 8 (≈ 2.09 to 4.18 µM) | 0.01 to 0.5 (≈ 0.00522 to 0.261 µM) | 1 to 2 (≈ 0.522 to 1.04 µM) | 0.01 to 0.5 (≈ 0.00522 to 0.261 µM) | 0.01 to 0.5 (≈ 0.00522 to 0.261 µM) |  |  |  |  |  |  |  | 
CCCCCOc1ccc(S(=O)(=O)NCCCCCCNCc2c(O)cc3c(c2O)-c2cc(ccc2O)[C@H]2NC(=O)[C@@H]4NC(=O)[C@H](CC(N)=O)NC(=O)[C@H](NC(=O)[C@@H](CC(C)C)NC)[C@H](O)c5ccc(c(Cl)c5)Oc5cc4cc(c5O[C@@H]4O[C@H](CO)[C@@H](O)[C@H](O)[C@H]4O[C@H]4C[C@](C)(NC(=O)CN)[C@H](O)[C@H](C)O4)Oc4ccc(cc4Cl)[C@@H](O)[C@H](NC2=O)C(=O)N[C@@H]3C(=O)O)cc1 (atropisomer, axis not shown) [Compound 345] | 0.01 to 0.5 (≈ 0.00537 to 0.269 µM) | 0.01 to 0.5 (≈ 0.00537 to 0.269 µM) | 0.01 to 0.5 (≈ 0.00537 to 0.269 µM) | 0.01 to 0.5 (≈ 0.00537 to 0.269 µM) | 0.01 to 0.5 (≈ 0.00537 to 0.269 µM) | 0.01 to 0.5 (≈ 0.00537 to 0.269 µM) | > 16 | 0.01 to 0.5 (≈ 0.00537 to 0.269 µM) | 8 to 16 (≈ 4.3 to 8.6 µM) | 0.01 to 0.5 (≈ 0.00537 to 0.269 µM) | 0.01 to 0.5 (≈ 0.00537 to 0.269 µM) |  |  |  |  |  |  |  | 
CCCCCOc1ccc(CCNC(=O)Oc2cc(O)c3c(c2)[C@@H](C(=O)NC2C4CC5CC(C4)CC2C5)NC(=O)[C@H]2NC(=O)[C@H](NC(=O)[C@@H]4NC(=O)[C@H](CC(N)=O)NC(=O)[C@H](NC(=O)[C@@H](CC(C)C)NC)[C@H](O)c5ccc(c(Cl)c5)Oc5cc4cc(c5O[C@@H]4O[C@H](CO)[C@@H](O)[C@H](O)[C@H]4O[C@H]4C[C@](C)(N)[C@H](O)[C@H](C)O4)Oc4ccc(cc4Cl)[C@H]2O)c2ccc(O)c-3c2)cc1 (stereo partly shown) [Compound 338] |  |  |  |  |  |  |  |  |  |  |  | 0.01 to 0.5 (≈ 0.00551 to 0.275 µM) | 0.01 to 0.5 (≈ 0.00551 to 0.275 µM) | 0.01 to 0.5 (≈ 0.00551 to 0.275 µM) | 0.01 to 0.5 (≈ 0.00551 to 0.275 µM) | 0.01 to 0.5 (≈ 0.00551 to 0.275 µM) | 0.01 to 0.5 (≈ 0.00551 to 0.275 µM) | 0.01 to 0.5 (≈ 0.00551 to 0.275 µM) | 0.01 to 0.5 (≈ 0.00551 to 0.275 µM)

More lines, main results first:

MIC [1, 11] [µg/mL] | MIC [2, 12] [µg/mL] | MIC [3] [µg/mL] | MIC [4, 13] [µg/mL] | MIC [5, 14] [µg/mL] | MIC [6, 15] [µg/mL] | MIC [7] [µg/mL] | MIC (Enterococcus faecium 800; [16]) [µg/mL] | MIC [8] [µg/mL] | MIC [9, 17] [µg/mL] | MIC [10, 18] [µg/mL] | SMILES | MIC ([1]; Staphylococcus aureus, ATCC29213, read-out: MIC SA 100) [µg/mL] | MIC ([2]; Staphylococcus aureus, MRSA) [µg/mL] | MIC ([4]; Staphylococcus epidermidis, 835, read-out: MIC SE 835) [µg/mL] | MIC ([5]; Staphylococcus epidermidis, MRSE) [µg/mL] | MIC ([6]; Enterococcus faecalis, ATCC29212, read-out: MIC E FC 101, Enterococcus faecalis 101 (ATCC 29212)) [µg/mL] | MIC (Enterococcus faecium 800; Enterococcus faecium, 800, read-out: MIC E FCM 800) [µg/mL] | MIC ([9]; Streptococcus pneumoniae, ATCC49619, read-out: MIC S PNE 1195) [µg/mL] | MIC ([10]; Streptococcus pyogenes, 712, read-out: MIC S PYO 712) [µg/mL]
0.01 to 0.5 (≈ 0.00534 to 0.267 µM) | 0.01 to 0.5 (≈ 0.00534 to 0.267 µM) | 0.01 to 0.5 (≈ 0.00534 to 0.267 µM) | 0.01 to 0.5 (≈ 0.00534 to 0.267 µM) | 0.01 to 0.5 (≈ 0.00534 to 0.267 µM) | 0.01 to 0.5 (≈ 0.00534 to 0.267 µM) | 4 to 8 (≈ 2.14 to 4.27 µM) | 0.01 to 0.5 (≈ 0.00534 to 0.267 µM) | 0.5 to 1 (≈ 0.267 to 0.534 µM) | 0.01 to 0.5 (≈ 0.00534 to 0.267 µM) | 0.01 to 0.5 (≈ 0.00534 to 0.267 µM) | CCCCCCc1ccc(S(=O)(=O)NCCCCCCNCc2c(O)cc3c(c2O)-c2cc(ccc2O)[C@H]2NC(=O)[C@@H]4NC(=O)[C@H](CC(N)=O)NC(=O)[C@H](NC(=O)[C@@H](CC(C)C)NC)[C@H](O)c5ccc(c(Cl)c5)Oc5cc4cc(c5O[C@@H]4O[C@H](CO)[C@@H](O)[C@H](O)[C@H]4O[C@H]4C[C@](C)(NC(=O)[C@@H](C)N)[C@H](O)[C@H](C)O4)Oc4ccc(cc4Cl)[C@@H](O)[C@H](NC2=O)C(=O)N[C@@H]3C(=O)O)cc1 (atropisomer, axis not shown) [Compound 342] |  |  |  |  |  |  |  | 
0.01 to 0.5 (≈ 0.00526 to 0.263 µM) | 0.01 to 0.5 (≈ 0.00526 to 0.263 µM) | 0.01 to 0.5 (≈ 0.00526 to 0.263 µM) | 0.01 to 0.5 (≈ 0.00526 to 0.263 µM) | 0.01 to 0.5 (≈ 0.00526 to 0.263 µM) | 0.01 to 0.5 (≈ 0.00526 to 0.263 µM) | 8 to 16 (≈ 4.21 to 8.42 µM) | 0.01 to 0.5 (≈ 0.00526 to 0.263 µM) | 1 to 2 (≈ 0.526 to 1.05 µM) | 0.01 to 0.5 (≈ 0.00526 to 0.263 µM) | 0.01 to 0.5 (≈ 0.00526 to 0.263 µM) | CCCCCCc1ccc(S(=O)(=O)NCCCCCCNCc2c(O)cc3c(c2O)-c2cc(ccc2O)[C@H]2NC(=O)[C@@H]4NC(=O)[C@H](CC(N)=O)NC(=O)[C@H](NC(=O)[C@@H](CC(C)C)NC)[C@H](O)c5ccc(c(Cl)c5)Oc5cc4cc(c5O[C@@H]4O[C@H](CO)[C@@H](O)[C@H](O)[C@H]4O[C@H]4C[C@](C)(NC(=O)[C@H](N)C(C)C)[C@H](O)[C@H](C)O4)Oc4ccc(cc4Cl)[C@@H](O)[C@H](NC2=O)C(=O)N[C@@H]3C(=O)O)cc1 (atropisomer, axis not shown) [Compound 343] |  |  |  |  |  |  |  | 
